From PMC10826971, “Evaluating protein cross-linking as a therapeutic strategy to stabilize SOD1 variants in a mouse model of familial ALS” (PLOS Biology, 2024) come the findings set out here.

SMILES strings stand for the structures.

The target in the assay is SOD1^G93A (Homo sapiens, UniProt P00441, G94A). Put plainly: Pharmacodynamic profiling: cross-linked SOD1^G93A dimer in blood (RBC) by LC-MS. Type of assay: in vivo, mouse. On the set-up: Extraction of SOD1^G93A from red blood cell (RBC) protein was performed as previously described; tissue Jackson Laboratory 002726; host or cells: red blood cells of transgenic B6SJL-Tg(SOD1*G93A)1Gur/J mice. The conditions noted are these: for % Dimer (cross-linked SOD1^G93A in blood): 10 mg/kg IV single dose.
Chain of SOD1^G93A (P00441 2-154 G94A limits assumed): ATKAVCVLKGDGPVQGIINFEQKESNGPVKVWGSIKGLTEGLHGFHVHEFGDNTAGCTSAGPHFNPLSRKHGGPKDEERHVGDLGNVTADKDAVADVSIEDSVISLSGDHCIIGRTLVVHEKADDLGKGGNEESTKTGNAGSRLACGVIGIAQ

As to `[O-][S+]1CCCCS1` (centres unmarked) [S-XL6, 1,2-dithiane-1-oxide], the “% Dimer (cross-linked SOD1^G93A in blood)” value was found to be 38% (0.5 h post dose); 63% (1 h post dose); 55% (2 h post dose); 53% (4 h post dose); 51% (8 h post dose); 42% (12 h post dose). The “% Dimer (cross-linked SOD1^G93A in blood)” value worked out at 26% (24 h post dose), 20% (48 h post dose), 16% (72 h post dose) and 6% ([…] post dose). Under “G93A fALS mouse”, the “Target engagement in blood and brain” value is “SOD1 dimer formation in G93A fALS mouse blood and brain”.
